Experiment: xn = mol fraction of the nth substance listed
Conditions: 93.2 kPa, Liquid; for speed of sound: Frequency=3 MHz, Sing-around technique in a fixed-path interferometer; for mass density: Vibrating tube method

CCCC(=O)[O-].CCCC[NH3+] [n-butylammonium butanoate] + CO
Conditions | mass density, 293.15 K [kg/m3] | mass density, 298.15 K [kg/m3] | speed of sound, 293.15 K [m/s] | speed of sound, 298.15 K [m/s] | speed of sound, 303.15 K [m/s]
x1 = 0.0503 | 827.536 | 823.196 | 1187.9 | 1171.5 | 1155.3
x1 = 0.0999 | 850.303 | 846.198 | 1233.9 | 1217.6 | 1201.5
x1 = 0.1491 | 866.376 | 862.414 | 1268.2 | 1251.9 | 1235.9
x1 = 0.2011 | 878.773 | 874.958 | 1295.6 | 1279.4 | 1263.3
x1 = 0.2525 | 888.142 | 884.423 | 1316.7 | 1300.5 | 1284.4
x1 = 0.3057 | 895.564 | 891.923 | 1333.9 | 1317.8 | 1301.7
x1 = 0.3476 | 900.631 | 896.968 | 1345.6 | 1329.3 | 1313.2
x1 = 0.3966 | 905.316 | 901.759 | 1356.4 | 1340.1 | 1324
x1 = 0.4491 | 909.413 | 905.905 | 1366.1 | 1349.7 | 1333.5
x1 = 0.501 | 912.93 | 909.441 | 1374.4 | 1358 | 1341.8
x1 = 0.541 | 915.316 | 911.864 | 1380.2 | 1363.7 | 1347.4
x1 = 0.5913 | 917.715 | 914.276 | 1386 | 1369.4 | 1353.1
x1 = 0.6445 | 920.109 | 916.724 | 1391.7 | 1374.9 | 1358.5
x1 = 0.6895 | 921.905 | 918.523 | 1396.6 | 1379.8 | 1363.2
x1 = 0.7391 | 923.626 | 920.287 | 1401.3 | 1384.2 | 1367.4
x1 = 0.8007 | 925.47 | 922.166 | 1407.1 | 1389.5 | 1372.5
x1 = 0.8243 | 926.211 | 922.909 | 1409.6 | 1391.8 | 1374.6
x1 = 0.8973 | 927.898 | 924.584 | 1416.7 | 1398 | 1380.2
x1 = 0.932 | 928.804 | 925.491 | 1420.3 | 1401.2 | 1383
x1 = 1 | 928.794 | 925.509 | 1431.5 | 1410.3 | 1390.4
